According to article PMC4085509, “Extended treatment of Cushing’s disease with pasireotide: results from a 2-year, Phase II study” (Pituitary, 2013):
Like-named read-outs stand apart in the source and are kept apart here. *1 amine or outer side, *2 acyl side, *3 side chain or, on linkers, in order; H or OH if unused. Where a SMILES comes first, the peptide text is derived from it. Side-chain parts run from the residue outwards. [ ]: non-standard residue; d: D form. The star is where a group is joined. Ethylenediamine = C(CN[*:2])N[*:1]; Hyp = O=C(O)[C@@H]1C[C@@H](O)CN1; Phg = N[C@H](C(=O)O)c1ccccc1; CO = O=C([*:1])[*:2]; Bn = c1ccc(C*)cc1

Key:
[1] = tested on: patients with Cushing's disease; test: Adverse events and discontinuations in the extension study; type: in vivo, human
Experimental: (§1) Safety was assessed by recording all AEs, as well as by regular monitoring of vital signs, physical condition, body weight, hematology and blood chemistry. HbA1c levels were recorded at extension baseline and then every 16 weeks. HbA1c categories were: <upper limit of normal (ULN; normal defined as <5.7 %), between the ULN and 7 %, between 7 and 9 %, and over 9 %.

sst3 = tested on: sst3; parameters: method as in PMID 11980628; conditions: cited from earlier work
serum cortisol = test: Serum cortisol, ECLIA (Elecsys), pre-morning-dose samples; type: in vivo, human
Experimental: (§2) Blood samples for serum cortisol, plasma ACTH and pharmacokinetic assessments were collected before the morning pasireotide dose on study visit days. UFC assays were conducted in two central laboratories, one in Europe and the other in the US. Serum cortisol and plasma ACTH assays were assessed centrally by one laboratory (see Supplementary Material for further details).
(§3) UFC levels were measured with two 24-hour urine specimens collected in the 48 hours prior to core baseline and at study visits during the extension study. Serum cortisol was measured with electrochemiluminescence immunoassay (ECLIA), using the Elecsys® cortisol reagent kit (Roche Diagnostics, Indianapolis, IN, USA), which has a lower limit of quantification (LLOQ) of […] (0.018 μg/dL) and intra- and inter-assay coefficients of variation of 1.2% and 1.4%, respectively. UFC levels were measured with ECLIA, using the Elecsys® cortisol reagent kit with prior dichloromethane extraction to reduce the amount of cortisol metabolites and conjugates.

[2] = tested on: urinary free cortisol (UFC); conditions: 15-day core study, 600 μg sc bid, cited from earlier work
[3] = tested on: urinary free cortisol (UFC); test: 24-h urinary free cortisol (UFC), ECLIA after dichloromethane extraction, extension study; type: in vivo, human
Experimental: (§4) The primary efficacy outcome was the proportion of patients with normalized UFC levels after 6 months of treatment (normal UFC range: 55–276 nmol/24 h; 20–100 μg/24 h). Secondary objectives included assessment of the safety and tolerability of multiple doses of pasireotide and trough plasma concentrations of pasireotide after chronic dosing.
Patients were classified as ‘UFC responders’ if their mean UFC level at month 6 was in the normal range; as ‘UFC reducers’ if their mean UFC level at month 6 was lower than that at core study baseline but not within normal limits; and as ‘UFC non-reducers’ if their mean UFC level at month 6 was equal to or higher than that at core study baseline or if the mean UFC level at month 6 was missing. Patients who discontinued prior to month 6 were classified as non-responders.
as §2, §3

sst1 = conditions: cited from earlier work
[4] = HbA1c and fasting plasma glucose monitoring; type: in vivo, human
Experimental: as §1
(§5) Patient visits occurred every 2 weeks for the first 3 months and then every 3 months for assessments of UFC, serum cortisol, plasma ACTH, hematology, blood chemistry, HbA1c, electrocardiogram (ECG) and vital signs. Patients were referred to a diabetes specialist for evaluation and appropriate management if any of the following were present: […]

[5] = tested on: patients with Cushing's disease; test: Electrocardiogram intervals; type: in vivo, human; conditions: number of patients
Text: as §5

plasma ACTH = test: Plasma ACTH, Immulite 2000 ACTH kit, pre-morning-dose samples; type: in vivo, human; conditions: Day 15, n=18, normal <10
Experimental: as §2
(§6) Plasma ACTH was assayed with the Immulite® 2000 ACTH kit (DPC, Los Angeles, CA, USA), which has a lower limit of detection of 9 pg/mL (1.98 pmol/L) and intra- and inter-assay coefficients of variation of 7.7% and 8.5%, respectively. Pasireotide plasma concentrations were measured using a validated radioimmunoassay with an LLOQ of 150 pg/mL.

[6] = Trough plasma concentration of pasireotide, radioimmunoassay; type: in vivo, human; conditions: for level at 4320 h: human, read-out: Ctrough, mean ± SD
Experimental: as §4, §2, §6

sst5 = tested on: sst5; parameters: method as in PMID 11980628; conditions: cited from earlier work
sst2 = tested on: sst2; parameters: method as in PMID 11980628; conditions: cited from earlier work
[7] = safety population n=19, regardless of study-drug relationship
[8] = at some point during the extension, of six shifted
[9] = of 16 with normal FPG at extension baseline, at some point

NCCCC[C@@H]1NC(=O)[C@@H](Cc2c[nH]c3ccccc23)NC(=O)[C@H](c2ccccc2)NC(=O)[C@@H]2C[C@@H](OC(=O)NCCN)CN2C(=O)[C@H](Cc2ccccc2)NC(=O)[C@H](Cc2ccc(OCc3ccccc3)cc2)NC1=O [pasireotide] (cyclo([Hyp]([CO-Ethylenediamine])[Phg][dW]KY(Bn)F))
Hyperglycemia-related AEs, proportion of patients ([1]; 13/19, treatment period): 68% | Deaths during the study ([1]; in vivo): No patients died | Patients with grade 4 AEs ([1]; increased γ-glutamyltransferase, type 2 diabetes mellitus, both suspected drug related): Two | Patients with at least one AE during the study ([1]; n=19): All patients | Patients reporting a hyperglycemia-related adverse event ([1]; of 19): Thirteen | Discontinuation because of AE (new-onset type 2 diabetes mellitus) ([1]; one of 19 patients): 5.3% | Adverse event: Abdominal pain [1, 7]: 9 (47.4) n (%) | Adverse event: Diarrhea [1, 7]: 13 (68.4) n (%) | Adverse event: Dizziness [1, 7]: 5 (26.3) n (%) | Adverse event: Fatigue [1, 7]: 5 (26.3) n (%) | Adverse event: Headache [1, 7]: 7 (36.8) n (%) | Adverse event: Hyperglycemia [1, 7]: 11 (57.9) n (%) | Adverse event: Injection-site pain [1, 7]: 6 (31.6) n (%) | Adverse event: Injection-site pruritus [1, 7]: 5 (26.3) n (%) | Adverse event: Nausea [1, 7]: 12 (63.2) n (%) | Discontinuation because of unsatisfactory therapeutic effect ([1]; three of 19 patients, after 5–10 months): 15.8% | Discontinuation because of abnormal laboratory value ([1]; two of 19 patients: one increased HbA1c and glucose, one elevated UFC): 10.5% | Affinity for sst3 (sst3): high affinity | Serum cortisol, mean ± SD (serum cortisol; Day 15, n=18, normal 221–690 (09:00 h)): 698 ± 161 nmol/L | Serum cortisol, mean ± SD (serum cortisol; Month 6, n=11): 559 ± 300 nmol/L | Proportion of patients with reduced UFC levels ([2]; 22/29 patients): 76% | Proportion of patients with normalized UFC ([2]; five patients): 17% | UFC, mean ± SD ([3]; Day 15, n=17, primary efficacy population, normal 55–276): 522 ± 302 nmol/24 h | Proportion of patients with normal UFC levels (UFC responders) ([3]; Month 6, 4 of 18 patients, primary efficacy analysis, 95 % CI 6.4–47.6): 22.2% | Proportion of patients with reduction in mean UFC but not to within normal range (UFC reducers) ([3]; Month 6, 6 of 18 patients): 33.3% | Proportion of patients with lower UFC than at core baseline ([3]; Month 6, 10 of 18 patients): 56% | UFC, mean ± SD ([3]; Month 6, n=11, primary efficacy population): 421 ± 340 nmol/24 h | UFC, mean ± SD ([3]; Month 12, n=4, primary efficacy population): 398 ± 220 nmol/24 h | UFC, mean ± SD ([3]; Month 24, n=4, primary efficacy population): 514 ± 456 nmol/24 h | Number of patients with >50 % reduction in mean UFC from core baseline ([3]; Month 24, of four patients on study drug): three | Number of patients with normalized UFC ([3]; Month 24, of the four patients who remained on study drug): one | Affinity for sst1 (sst1): high affinity | Patients with HbA1c shifted to a higher category with levels <7% [4, 8]: three | Patients with HbA1c shifted to between 7% and 9% [4, 8]: three | Patients with post-baseline HbA1c shifted to a higher category ([4]; at some point during the extension, eight with baseline values): Six | Shifts to levels of HbA1c >9% ([4]; during the extension): no shifts | Patients with an increase in fasting plasma glucose level at some point during the extension ([4]; in vivo): All patients | Patients with improved FPG levels at their last assessment ([4]; in vivo): All patients | Patients whose FPG shifted to between 100 and <126 mg/dL (5.6 to <7.0 mmol/L) [4, 9]: six | Patients whose FPG shifted to between 126 and <200 mg/dL (7.0 to <11.1 mmol/L) [4, 9]: four | Patients whose FPG shifted to ≥200 mg/dL (≥11.1 mmol/L) [4, 9]: six | Patients with HbA1c shifted to >ULN but <7% at last assessment ([4]; of five remaining higher): four | Patients with HbA1c shifted to between 7% and 9% at last assessment ([4]; of five remaining higher): one | Patients remaining at a higher post-baseline HbA1c level at last assessment ([4]; of the six shifted): Five | Newly occurring QT of 450–480 ms [5]: One patient | Newly occurring QTcB of 450–480 ms [5]: another patient | QRS interval of >110 ms (not clinically significant) [5]: one patient | Plasma ACTH, mean ± SD (plasma ACTH): 12.4 ± 8.9 pmol/L | Ctrough ([6]; Month 6, UFC non-reducers, n=1): 5.2 ng/mL | level at 4320 h ([6]; Month 6, UFC reducers, n=6, SD): 19.1 ± 10.9 ng/mL | level at 4320 h ([6]; Month 6, UFC responders, n=4, LLOQ 150 pg/mL, SD): 17.4 ± 11.6 ng/mL | Affinity for sst5 (sst5): highest affinity | Affinity for sst2 (sst2): high affinity
